What was measured:
[1] = tested on: Phaeosphaeria nodorum; assay: Phaeosphaeria nodorum (Septoria nodorum) / wheat / leaf disc preventative (glume blotch); assay type: in vivo; conditions: Parastagonospora nodorum, foliar, inoculated 2 days after application
Method: Example B9: Phaeosphaeria nodorum (Septoria nodorum)/Wheat/Leaf Disc Preventative (Glume Blotch) Wheat leaf segments cv. Kanzler are placed on agar in a multiwell plate (24-well format) and sprayed with the formulated test compound diluted in water. The leaf disks are inoculated with a spore suspension of the fungus 2 days after application. The inoculated test leaf disks are incubated at 20° C. and 75% relative humidity under a light regime of 12 h light/12 h darkness in a climate cabinet and the activity of a compound is assessed as percent disease control compared to untreated when an appropriate level of disease damage appears in untreated check leaf disks (5-7 days after application).

[2] = tested on: Monographella nivalis; assay: Monographella nivalis (Microdochium nivale) / liquid culture (foot rot cereals); assay type: cell-based; conditions: 96 h, photometrically 4-5 days after application, read-out: control of Monographella nivalis
Method in brief: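 Microdochium nivale conidia in potato dextrose broth were added to test compound in DMSO and incubated at 24° C. Growth inhibition was measured photometrically 4-5 days after application.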

[3] = tested on: Glomerella lagenarium; assay: Glomerella lagenarium (Colletotrichum lagenarium) / liquid culture (anthracnose); assay type: cell-based; conditions: Colletotrichum orbiculare, 72 h, photometrically 3-4 days after application, read-out: control of Glomerella lagenarium
Method in brief: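 Conidia in potato dextrose broth added to test compound delivered as DMSO solution in microtiter plates; incubation at 24° C. Growth inhibition read photometrically 3-4 days after application.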

[4] = tested on: Mycosphaerella graminicola; assay: Mycosphaerella graminicola (Septoria tritici) / liquid culture (Septoria blotch); assay type: cell-based; conditions: Zymoseptoria tritici, 96 h, photometrically 4-5 days after application, read-out: control of Mycosphaerella graminicola
Method in brief: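 Conidia from cryogenic storage mixed into potato dextrose broth, added to test compound in DMSO. Plates incubated at 24° C; growth inhibition read photometrically 4-5 days after application.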

[5] = tested on: Botryotinia fuckeliana; assay: Botryotinia fuckeliana (Botrytis cinerea) / liquid culture (gray mould); assay type: cell-based; conditions: 72 h, growth inhibition photometrically 3-4 days after application, read-out: control of Botryotinia fuckeliana
Method: Example B2: Botryotinia Fuckeliana (Botrytis cinerea)/Liquid Culture (Gray Mould) Conidia of the fungus from cryogenic storage are directly mixed into a nutrient broth (Vogels broth). After placing a DMSO solution of test compound into a microtiter plate (96-well format), the nutrient broth containing the fungal spores is added. The test plates are incubated at 24° C. and the inhibition of growth is determined photometrically 3-4 days after application.

[6] = tested on: Alternaria solani; assay: Alternaria solani / tomato / leaf disc (early blight); assay type: in vivo; conditions: foliar, inoculated 2 days after application, vs untreated control
Method: Example B1: Alternaria solani/Tomato/Leaf Disc (Early Blight) Tomato leaf disks cv. Baby are placed on agar in multiwell plates (24-well format) and sprayed with the formulated test compound diluted in water. The leaf disks are inoculated with a spore suspension of the fungus 2 days after application. The inoculated leaf disks are incubated at 23° C./21° C. (day/night) and 80% relative humidity under a light regime of 12 h/12 h (light/dark) in a climate cabinet and the activity of a compound is assessed as percent disease control compared to untreated when an appropriate level of disease damage appears on untreated check disk leaf disks (5-7 days after application).

[7] = tested on: Mycosphaerella arachidis; assay: Mycosphaerella arachidis (Cercospora arachidicola) / liquid culture (early leaf spot); assay type: cell-based; conditions: 96 h, photometrically 4-5 days after application, read-out: control of Mycosphaerella arachidis
Method in brief: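 Cryostored M. arachidis conidia in potato dextrose broth were added to compound applied as DMSO solution. Incubated at 24 °C; growth inhibition measured photometrically 4-5 days after application.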

[8] = tested on: Pyrenophora teres; assay: Pyrenophora teres / barley / leaf disc preventative (net blotch); assay type: in vivo; conditions: foliar, inoculated 2 days after application
Method: Example B16: Pyrenophora teres/Barley/Leaf Disc Preventative (Net Blotch) Barley leaf segments cv. Hasso are placed on agar in a multiwell plate (24-well format) and sprayed with the formulated test compound diluted in water. The leaf segments are inoculated with a spore suspension of the fungus 2 days after application. The inoculated leaf segments are incubated at 20° C. and 65% relative humidity under a light regime of 12 h light/12 h darkness in a climate cabinet and the activity of a compound is assessed as disease control compared to untreated when an appropriate level of disease damage appears in untreated check leaf segments (5-7 days after application).

Cn1cc([C@]2(C)CN(C(=O)c3cc(-c4ccc(F)cc4F)on3)Cc3ccccc32)cn1 (single isomer, unassigned) [Compound P-49]
≥ 80%: pest or weed control at 200 ppm [1] | inhibition of growth at 20 ppm [2] | inhibition of growth at 20 ppm [3] | inhibition of growth at 20 ppm [4] | inhibition of growth at 20 ppm [5]

Cn1cc(C2CN(C(=O)c3cc(-c4ccc(F)cc4F)on3)Cc3ccccc32)cn1 (single isomer, unassigned) [Compound P-142, [5-(2,4-difluorophenyl)isoxazol-3-yl]-[4-(1-methylpyrazol-4-yl)-3,4-dihydro-1H-isoquinolin-2-yl]methanone]
≥ 80%: pest or weed control at 200 ppm [1] | inhibition of growth at 20 ppm [2] | pest or weed control at 200 ppm [6] | inhibition of growth at 20 ppm [3] | inhibition of growth at 20 ppm [4] | inhibition of growth at 20 ppm [5] | inhibition of growth at 20 ppm [7]

C[C@H]1c2ccccc2[C@@](C)(c2cnn(C)c2)CN1C(=O)c1cc(-c2ccccc2)on1 [Compound P-2, [(1S,4S)-1,4-dimethyl-4-(1-methylpyrazol-4-yl)-1,3-dihydroisoquinolin-2-yl]-(5-phenylisoxazol-3-yl)methanone]
≥ 80%: pest or weed control at 200 ppm [1] | inhibition of growth at 20 ppm [2] | pest or weed control at 200 ppm [6] | pest or weed control at 200 ppm [8] | inhibition of growth at 20 ppm [4] | inhibition of growth at 20 ppm [7]

CON=C(C)C1c2ccccc2C(c2cnn(C)c2)CN1C(=O)c1cc(-c2ccc(F)cc2F)on1 (stereo not drawn) [Compound P-10, [5-(2,4-difluorophenyl)isoxazol-3-yl]-[1-(N-methoxy-C-methyl-carbonimidoyl)-4-(1-methylpyrazol-4-yl)-3,4-dihydro-1H-isoquinolin-2-yl]methanone]
≥ 80%: pest or weed control at 200 ppm [1] | pest or weed control at 200 ppm [6] | inhibition of growth at 20 ppm [3] | inhibition of growth at 20 ppm [4]

CON=C(C)c1c(C2CN(C(=O)c3cc(-c4ccc(F)cc4F)on3)Cc3ccccc32)cnn1C (stereo not drawn) [Compound P-13, [5-(2,4-difluorophenyl)isoxazol-3-yl]-[4-[5-(N-methoxy-C-methyl-carbonimidoyl)-1-methyl-pyrazol-4-yl]-3,4-dihydro-1H-isoquinolin-2-yl]methanone]
≥ 80%: pest or weed control at 200 ppm [1] | inhibition of growth at 20 ppm [2] | pest or weed control at 200 ppm [6] | inhibition of growth at 20 ppm [4]

COc1ccc2c(c1)C(C)N(C(=O)c1cc(-c3ccc(F)cc3F)on1)CC2(C)c1cnn(C)c1 (stereo not drawn) [Compound P-18, [5-(2,4-difluorophenyl)isoxazol-3-yl]-[7-methoxy-1,4-dimethyl-4-(1-methylpyrazol-4-yl)-1,3-dihydroisoquinolin-2-yl]methanone]
≥ 80%: inhibition of growth at 20 ppm [2] | pest or weed control at 200 ppm [6] | pest or weed control at 200 ppm [8] | inhibition of growth at 20 ppm [3] | inhibition of growth at 20 ppm [4] | inhibition of growth at 20 ppm [7]

COc1ccc2c(c1)C(C)(c1cnn(C)c1)CN(C(=O)c1cc(-c3ccc(F)cc3F)on1)C2C (stereo not drawn) [Compound P-40, [5-(2,4-difluorophenyl)isoxazol-3-yl]-[6-methoxy-1,4-dimethyl-4-(1-methylpyrazol-4-yl)-1,3-dihydroisoquinolin-2-yl]methanone]
≥ 80%: pest or weed control at 200 ppm [1] | inhibition of growth at 20 ppm [2] | inhibition of growth at 20 ppm [4] | inhibition of growth at 20 ppm [7]

COc1cc(F)ccc1-c1cc(C(=O)N2Cc3ccccc3C(c3cnn(C)c3C)C2)no1 (stereo not drawn) [Compound P-46, [4-(1,5-dimethylpyrazol-4-yl)-3,4-dihydro-1H-isoquinolin-2-yl]-[5-(4-fluoro-2-methoxy-phenyl)isoxazol-3-yl]methanone]
≥ 80%: pest or weed control at 200 ppm [1] | inhibition of growth at 20 ppm [2] | pest or weed control at 200 ppm [6] | inhibition of growth at 20 ppm [4] | inhibition of growth at 20 ppm [7]

Cn1cc(C2CN(C(=O)c3nnc(-c4ccccc4F)o3)Cc3ccccc32)cn1 (stereo not drawn) [Compound P-54, [5-(2-fluorophenyl)-1,3,4-oxadiazol-2-yl]-[4-(1-methylpyrazol-4-yl)-3,4-dihydro-1H-isoquinolin-2-yl]methanone]
≥ 80%: pest or weed control at 200 ppm [8] | inhibition of growth at 20 ppm [4]

Cn1cc(C2CN(C(=O)c3cc(-c4ccc(F)cc4F)on3)Cc3ccc(C#N)cc32)cn1 (stereo not drawn) [Compound P-62, 2-[5-(2,4-difluorophenyl)isoxazole-3-carbonyl]-4-(1-methylpyrazol-4-yl)-3,4-dihydro-1H-isoquinoline-6-carbonitrile]
≥ 80%: pest or weed control at 200 ppm [1] | inhibition of growth at 20 ppm [2] | inhibition of growth at 20 ppm [3] | inhibition of growth at 20 ppm [4]

Cc1nn(C)c(C)c1C1CN(C(=O)c2cc(-c3ccccc3F)on2)Cc2ccccc21 (stereo not drawn) [Compound P-117, [5-(2-fluorophenyl)isoxazol-3-yl]-[4-(1,3,5-trimethylpyrazol-4-yl)-3,4-dihydro-1H-isoquinolin-2-yl]methanone]
≥ 80%: pest or weed control at 200 ppm [1] | inhibition of growth at 20 ppm [2] | pest or weed control at 200 ppm [8] | inhibition of growth at 20 ppm [3] | inhibition of growth at 20 ppm [4] | inhibition of growth at 20 ppm [7]

Cc1nn(C)c(C)c1C1CN(C(=O)c2cc(-c3ccc(F)cc3F)on2)Cc2ccccc21 (stereo not drawn) [Compound P-126, [5-(2,4-difluorophenyl)isoxazol-3-yl]-[4-(1,3,5-trimethylpyrazol-4-yl)-3,4-dihydro-1H-isoquinolin-2-yl]methanone]
≥ 80%: inhibition of growth at 20 ppm [2] | pest or weed control at 200 ppm [6] | pest or weed control at 200 ppm [8] | inhibition of growth at 20 ppm [3] | inhibition of growth at 20 ppm [4] | inhibition of growth at 20 ppm [7]

Cn1cc(C2CN(C(=O)c3cc(-c4c(F)cc(F)cc4F)on3)Cc3ccccc32)cn1 (stereo not drawn) [Compound P-136, [4-(1-methylpyrazol-4-yl)-3,4-dihydro-1H-isoquinolin-2-yl]-[5-(2,4,6-trifluorophenyl)isoxazol-3-yl]methanone]
≥ 80%: pest or weed control at 200 ppm [1] | inhibition of growth at 20 ppm [2] | pest or weed control at 200 ppm [6] | pest or weed control at 200 ppm [8] | inhibition of growth at 20 ppm [4]

Cc1ccc2c(c1)C(C)(c1cnn(C)c1)CN(C(=O)c1cc(-c3ccc(F)cc3F)on1)C2C (stereo not drawn) [Compound P-216, [5-(2,4-difluorophenyl)isoxazol-3-yl]-[1,4,6-trimethyl-4-(1-methylpyrazol-4-yl)-1,3-dihydroisoquinolin-2-yl]methanone]
≥ 80%: inhibition of growth at 20 ppm [2] | pest or weed control at 200 ppm [8] | inhibition of growth at 20 ppm [3] | inhibition of growth at 20 ppm [4] | inhibition of growth at 20 ppm [5]

CCC1(c2cnn(C)c2)CN(C(=O)c2cc(-c3ccc(F)cc3F)on2)Cc2ccccc21 (stereo not drawn) [Compound P-221, [5-(2,4-difluorophenyl)isoxazol-3-yl]-[4-ethyl-4-(1-methylpyrazol-4-yl)-1,3-dihydroisoquinolin-2-yl]methanone]
≥ 80%: pest or weed control at 200 ppm [1] | inhibition of growth at 20 ppm [4] | inhibition of growth at 20 ppm [7]

Cc1c(C2CN(C(=O)c3noc(-c4ccc(F)cc4F)n3)Cc3ccccc32)cnn1C (stereo not drawn) [Compound P-228, [5-(2,4-difluorophenyl)-1,2,4-oxadiazol-3-yl]-[4-(1,5-dimethylpyrazol-4-yl)-3,4-dihydro-1H-isoquinolin-2-yl]methanone]
≥ 80%: inhibition of growth at 20 ppm [2] | pest or weed control at 200 ppm [6] | pest or weed control at 200 ppm [8] | inhibition of growth at 20 ppm [3] | inhibition of growth at 20 ppm [4] | inhibition of growth at 20 ppm [7]
